“And” between values parts separate entries of the source, which are not always exact repeats. Identical values can stand only once.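 1) Cells in 96-well plates. 2) Compound, 48 h, 5 concentrations. 3) Linear interpolation between surrounding doses. 4) Unreached endpoint = highest concentration. GI50 marks 50% less growth. TGI denotes the concentration required for complete inhibition of growth.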
Assays:
Experiment in all cases: growth of human tumour cells (NCI), 48 h
SF-295 CNS = tested on: SF-295 CNS
SN12C renal = tested on: SN12C renal
HCT-15 colon = tested on: HCT-15 colon
ACHN renal = tested on: ACHN renal
786-0 renal = tested on: 786-0 renal
M14 melanoma = tested on: M14 melanoma
SK-MEL-5 melanoma = tested on: SK-MEL-5 melanoma
CCRF-CEM leukemia = tested on: CCRF-CEM leukemia
OVCAR-3 ovarian = tested on: OVCAR-3 ovarian
HS 578T breast = tested on: HS 578T breast

Row | Compound | TGI (SF-295 CNS) | TGI (SN12C renal) | TGI (HCT-15 colon) | TGI (ACHN renal) | TGI (786-0 renal) | TGI (M14 melanoma) | TGI (SK-MEL-5 melanoma) | TGI (CCRF-CEM leukemia) | GI50 (SF-295 CNS) | GI50 (ACHN renal) | GI50 (786-0 renal) | GI50 (M14 melanoma) | GI50 (CCRF-CEM leukemia) | GI50 (OVCAR-3 ovarian) | TGI (OVCAR-3 ovarian) | GI50 (SN12C renal) | GI50 (HCT-15 colon) | GI50 (SK-MEL-5 melanoma) | GI50 (HS 578T breast) [nM] | TGI (HS 578T breast) [µM]
1 | CC1(C)OC2OC(COC(=O)C(c3ccccc3)c3ccccc3)C3OC(C)(C)OC3C2O1 (centres undefined) | > 100 µM | > 100 µM | > 100 µM | > 100 µM | > 100 µM | > 100 µM | 24.4 µM | > 100 µM | – | – | – | – | – | – | – | – | – | – | – | –
2 | CC1CCC2c3c([nH]c4ccccc34)C3C(=O)N(c4ccccc4)C(=O)C3C2C1 (centres undefined) | > 250 µM | > 250 µM | > 250 µM | 224 µM | 40.6 µM and > 250 µM | > 250 µM | – | 42 µM and > 250 µM | 66.3 µM | 47.9 µM | 77.6 µM | 160 µM | 194 µM | > 250000 nM | > 250 µM | – | – | – | – | –
3 | CC1=C(C(=O)CC(=O)C(=O)Nc2ccccc2C)Sc2ccccc2N1 | > 100 µM | > 100 µM | > 100 µM | > 100 µM | > 69.1 µM | > 100 µM | > 100 µM | > 100 µM | – | – | – | – | – | – | > 100 µM | – | – | – | – | –
4 | O=C1c2ccoc2C(=O)c2oc(=O)ccc21 | 31.5 µM | 24.2 µM | 24.9 µM | 8.43 µM | 30.8 µM | 21.8 µM | 3.15 µM | 15.7 µM | – | – | – | – | – | – | 8.69 µM | – | – | – | – | –
5 | c1ccc2c(c1)[O][Sn][O]2 | > 150 µg/mL | > 150 µg/mL | > 150 µg/mL | > 150 µg/mL | > 150 µg/mL | > 150 µg/mL | > 150 µg/mL | > 150 µg/mL | > 150 µg/mL | 24.1 µg/mL | 23.6 µg/mL | 57.3 µg/mL | 1.12 µg/mL | 10.9 µg/mL | > 150 µg/mL | 41.8 µg/mL | 20.6 µg/mL | 20.7 µg/mL | – | –
6 | CCOC(=O)COc1cccc2occc(=O)c12 | > 100 µM | > 100 µM | > 100 µM | > 100 µM | > 100 µM | > 100 µM | > 100 µM | > 100 µM | – | – | – | – | – | – | > 100 µM | – | – | – | – | –
7 | O=C(CCC(=O)C1Cc2ccccc2C1=O)Nc1cccc(C(F)(F)F)c1 (centres undefined) | > 100 µM | > 100 µM | > 100 µM | > 100 µM | > 100 µM | > 100 µM | > 100 µM | > 100 µM | – | – | – | – | – | – | > 100 µM | – | – | – | – | –
8 | CC(C)(C)c1cc(C(OCCl)(C(F)(F)F)C(F)(F)F)c2c(c1)C(C(F)(F)F)(C(F)(F)F)OC21c2ccccc2C(=O)c2ccccc21 | > 100 µM | > 100 µM | > 100 µM | > 100 µM | > 100 µM | > 100 µM | > 100 µM | – | – | – | – | – | – | – | > 100 µM | – | – | – | – | –
9 | CN(C)c1ccc2c(c1)OC(N)=C(C#N)C2c1ccc2c(c1)CCCN2C (centres undefined) | 6.51 µM | – | > 100 µM | 64.6 µM | > 100 µM | 18.5 µM | 12.8 µM | 49.2 µM | 0.708 µM | 4.63 µM | 4.33 µM | 1.29 µM | 3.01 µM | 691 nM | 10.3 µM | – | 789 nM | 733 nM | 2130 | > 100
10 | O=CC(O)C(O)C(OC1OC(CO)C(O)C(O)C1O)C(O)CO (centres undefined) (tested in a mixture with another compound) | > 100 µM | > 100 µM | 54 µM | > 100 µM | > 100 µM | > 100 µM | > 100 µM | – | – | – | – | – | – | – | > 100 µM | – | – | – | – | > 100
11 | Nc1nc(-c2ccccc2)cc(-c2cc(Cl)ccc2O)n1 | > 100 µM | > 100 µM | > 100 µM | 72.3 µM | > 100 µM | > 100 µM | – | > 100 µM | – | – | – | – | – | – | 94.4 µM | – | – | – | – | –
12 | O=c1c2cccc3cccc(c4n1CCCN=4)c32 | > 100 µM | > 100 µM | > 100 µM | > 100 µM | > 100 µM | > 100 µM | > 100 µM | > 100 µM | – | – | – | – | – | – | > 100 µM | – | – | – | – | –
13 | CCN(CC)C(=O)CCCCCn1c2ccccc2c2c3c(c4c5ccccc5[nH]c4c21)C(=O)N(O)C3=O | 55.7 µM | > 100 µM | > 100 µM | – | 5.04 µM | 39.3 µM | 5.02 µM | 21.9 µM | 6.07 µM | – | 2.12 µM | 4.49 µM | 3.07 µM | – | – | 4.03 µM | 4070 nM | 2000 nM | 5050 | > 100
14 | COc1ccc2c3c(c(C(=O)O)oc13)C(CCC(=O)O)CC2 (centres undefined) | > 100 µM | > 100 µM | > 100 µM | > 100 µM | > 100 µM | > 100 µM | > 100 µM | – | – | – | – | – | – | – | > 100 µM | – | – | – | – | –
15 | O=C(Nc1ccc(Br)cc1)Nc1cccc(Br)c1 | – | > 100 µM | – | – | > 100 µM | > 100 µM | > 100 µM | – | – | – | 34.5 µM | 9.96 µM | – | – | – | 71.8 µM | – | > 100000 nM | > 100000 | > 100
16 | CN(C)CCNC(=O)c1cccc2cc3ccc4ccccc4c3nc12 | 0.886 µM | 0.818 µM | 0.593 µM | 0.0561 µM | 1.37 µM | 0.41 µM | 0.358 µM | 0.267 µM | – | – | – | – | – | – | 0.738 µM | – | – | – | – | –
17 | CCOC(=O)C1=CSC2=NC3=C(CCC/C3=C\c3cc(OC)c(OC)c(OC)c3)C(c3cc(OC)c(OC)c(OC)c3)N12 (centres undefined) | – | – | – | – | > 100 µM | – | – | 3.74 µM | – | – | > 100 µM | – | 0.47 µM | 2960 nM | > 100 µM | – | – | – | 2470 | > 100
18 | Nc1c(C(=O)Nc2ccccc2O)[n+]([O-])c2ccccc2[n+]1[O-] | > 100 µM | > 100 µM | > 100 µM | > 100 µM | > 100 µM | > 100 µM | 28.3 µM | – | – | – | – | – | – | – | > 100 µM | – | – | – | – | –
19 | O=S(=O)(Cc1ccccc1)SCc1ccccc1 | 65.7 µM | 58 µM | 40.2 µM | > 100 µM | 51.5 µM | 27.6 µM | 48.5 µM | > 27.5 µM | – | – | – | – | – | – | 58.5 µM | – | – | – | – | –
20 | C1CCN2CC3CONC3C2C1 (centres undefined) | > 100 µM | > 100 µM | > 100 µM | > 100 µM | > 100 µM | > 100 µM | > 100 µM | > 100 µM | – | – | – | – | – | – | > 100 µM | – | – | – | – | –
21 | Cn1cc(NC(=O)c2cc(NC(=O)CCCCCCCC(=O)Nc3cc(C(=O)Nc4cc(C(=O)NCCC(=N)N)n(C)c4)n(C)c3)cn2C)cc1C(=O)NCCC(=N)N | > 100 µM | 41 µM | > 100 µM | > 100 µM | > 100 µM | > 100 µM | 22.3 µM | 86.1 µM | – | – | – | – | – | – | 65.7 µM | – | – | – | – | –
